Entries after “also recorded” stand apart in the source; their conditions may differ.
How the values were obtained:
[1] = tested on: HFD-fed obese mice; test: Body weight and food intake in high fat diet (HFD)-fed obese mice, daily i.p. injection; type: in vivo, C57Bl/6J mice; conditions: three weeks, vs DMSO vehicle
Procedure: To investigate whether gambogic acid can act as an anti-obesity drug by increasing leptin sensitivity and reducing appetite, C57Bl/6J mice were placed on a high fat diet (HFD; Research Diets, D12451, 45 kcal % fat) feeding for 16 weeks. After establishment of obesity and leptin resistance, mice were administered gambogic acid (at 0.5 mg/kg, in 25 μl DMSO, once per day) and vehicle (DMSO, 25 μl) with intraperitoneal (i.p.) injection. The animals had free access to food and water unless otherwise stated. In all experiments, three days prior to drug administration, the animals went through an acclimation period where they were given DMSO (25 μl) to reduce the effect of stress created by i.p. injection. Following three days acclimation, mice were administered gambogic acid daily i.p. injections at 0.5 mg/kg for three weeks in 25 μl of DMSO as vehicle, whereas the control group received the same volume of DMSO. […] To investigate whether tanespimycin can act as an anti-obesity drug by increasing leptin sensitivity and reducing appetite, C57Bl/6J mice were placed on a high fat diet (HFD; Research Diets, D12451, 45 kcal % fat) feeding for 16 weeks. After establishment of obesity and leptin resistance, mice were administered tanespimycin (at 15 mg/kg, in 25 μl DMSO, once per day) and vehicle (DMSO, 25 μl) with intraperitoneal (i.p.) injection. The animals had free access to food and water unless otherwise stated. In all experiments, three days prior to drug administration, the animals went through an acclimation period where they were given DMSO (25 μ1) to reduce the effect of stress created by i.p. injection. Following three days acclimation, mice were administered tanespimycin daily i.p. injections at 15 mg/kg for three weeks in 25 μl of DMSO as vehicle, whereas the control group received the same volume of DMSO. […] To investigate whether NVP-AUY922 can act as an anti-obesity drug by increasing leptin sensitivity and reducing appetite, C57Bl/6J mice were placed on a high fat diet (HFD; Research Diets, D12451, 45 kcal % fat) feeding for 16 weeks. After establishment of obesity and leptin resistance, mice were administered NVP-AUY922 (at 15 mg/kg, in 25 μl DMSO, once per day) and vehicle (DMSO, 25 μl) with intraperitoneal (i.p.) injection. The animals had free access to food and water unless otherwise stated. In all experiments, three days prior to drug administration, the animals went through an acclimation period where they were given DMSO (25 μ1) to reduce the effect of stress created by i.p. injection. Following three days acclimation, mice were administered NVP-AUY922 daily i.p. injections at 15 mg/kg for three weeks in 25 μl of DMSO as vehicle, whereas the control group received the same volume of DMSO.

[2] = tested on: lean mice; test: Body weight and food intake in 10-week old lean mice on chow diet, i.p. injection; type: in vivo; conditions: three weeks
Procedure: Gambogic acid was administered to 10-week old lean mice on chow diet at 0.5 mg/kg for three weeks by i.p. injections. […] Tanespimycin was administered to 10-week old lean mice on chow diet at 15 mg/kg for three weeks by i.p. injections. […] NVP-AUY922 was administered to 10-week old lean mice on chow diet at 15 mg/kg for three weeks by i.p. injections.

[3] = tested on: leptin receptor deficient (db/db) mice; test: Body weight and food intake in leptin receptor deficient (db/db) mice; type: in vivo; conditions: 0.5 mg/kg once a day
Procedure: To explore whether gambogic acid's effect is leptin dependent, gambogic acid (0.5 mg/kg, once a day, in 25μ1 DMSO) was administered to leptin receptor deficient (db/db) mice.

[4] = rating from cited sources, cited from earlier work
[5] = 0.5 mg/kg i.p. once per day, 0.5 mg/kg

## CC(C)=CCC[C@]1(C)C=Cc2c(O)c3c(c(CC=C(C)C)c2O1)O[C@]12C(=C[C@@H]4C[C@H]1C(C)(C)O[C@@]2(C/C=C(/C)C(=O)O)C4=O)C3=O [gambogic acid]
[1]; [5]
  body weight: significantly decreased; also recorded: decreased body weight
  food intake: significantly decreased
[1]; 0.5 mg/kg i.p. once per day, listed as SR-03, 0.5 mg/kg
  food intake: significant decrease
[2]; 0.5 mg/kg i.p., 0.5 mg/kg
  body weight: little or no decrease; also recorded: failed to induce bodyweight loss
  food intake: failed to induce bodyweight loss or food intake
[2]; 0.5 mg/kg i.p., listed as SR-03, 0.5 mg/kg
  food intake: little or no effect
[3]
  food intake: continued to increase similar to the vehicle treated group
[3]; 0.5 mg/kg
  body weight: continued to increase similar to the vehicle treated group; also recorded: not in db/db mice

## [Cr] [Chromium]
[4]
  Safety: Likely safe

## CCNC(=O)c1noc(-c2cc(C(C)C)c(O)cc2O)c1-c1ccc(CN2CCOCC2)cc1 [NVP-AUY922]
[1]; 15 mg/kg i.p. once per day
  body weight: significantly decreased
[2]; 15 mg/kg i.p.
  food intake: failed to induce bodyweight loss or food intake
[2]; 15 mg/kg i.p., 15 mg/kg
  body weight: little or no decrease; also recorded: failed to induce bodyweight loss

## Conjugated linoleic acid
[4]
  Safety: Possibly safe
[4]; weight loss
  Effectiveness: Possibly effective

— US20170209408A1, “HSP90 INHIBITORS FOR THE TREATMENT OF OBESITY AND METHODS OF USE THEREOF” (The Children's Medical Center Corporation, priority 2014, published 2017)
